Results as given in US10993947B2, “Treatment of skin lesions” (PIQUR THERAPEUTICS AG, priority 2016, dated 2021).

Legend:
[1] = test system: pS6 S235/S236 in A2058 cells; experiment: In-cell Western blot, pS6 S235/S236; format: cell-based; details: Homo sapiens, 1 hour treatment
[2] = test system: pPKB S473 in A2058 cells; experiment: In-cell Western blot, pPKB S473; format: cell-based; details: Homo sapiens, 1 hour treatment
[3] = biological target: T1, N-terminally GST-tagged mTOR (Homo sapiens, UniProt P42345); experiment: In vitro mTOR binding assay (LanthaScreen TR-FRET); details: LanthaScreen kinase binding, Tracer 314; read-out: mTOR IC50 (binding)
T1 construct: truncated version: amino acids 1360-2549; purchased Life Technologies PR8683B
T1 sequence (P42345 1360-2549): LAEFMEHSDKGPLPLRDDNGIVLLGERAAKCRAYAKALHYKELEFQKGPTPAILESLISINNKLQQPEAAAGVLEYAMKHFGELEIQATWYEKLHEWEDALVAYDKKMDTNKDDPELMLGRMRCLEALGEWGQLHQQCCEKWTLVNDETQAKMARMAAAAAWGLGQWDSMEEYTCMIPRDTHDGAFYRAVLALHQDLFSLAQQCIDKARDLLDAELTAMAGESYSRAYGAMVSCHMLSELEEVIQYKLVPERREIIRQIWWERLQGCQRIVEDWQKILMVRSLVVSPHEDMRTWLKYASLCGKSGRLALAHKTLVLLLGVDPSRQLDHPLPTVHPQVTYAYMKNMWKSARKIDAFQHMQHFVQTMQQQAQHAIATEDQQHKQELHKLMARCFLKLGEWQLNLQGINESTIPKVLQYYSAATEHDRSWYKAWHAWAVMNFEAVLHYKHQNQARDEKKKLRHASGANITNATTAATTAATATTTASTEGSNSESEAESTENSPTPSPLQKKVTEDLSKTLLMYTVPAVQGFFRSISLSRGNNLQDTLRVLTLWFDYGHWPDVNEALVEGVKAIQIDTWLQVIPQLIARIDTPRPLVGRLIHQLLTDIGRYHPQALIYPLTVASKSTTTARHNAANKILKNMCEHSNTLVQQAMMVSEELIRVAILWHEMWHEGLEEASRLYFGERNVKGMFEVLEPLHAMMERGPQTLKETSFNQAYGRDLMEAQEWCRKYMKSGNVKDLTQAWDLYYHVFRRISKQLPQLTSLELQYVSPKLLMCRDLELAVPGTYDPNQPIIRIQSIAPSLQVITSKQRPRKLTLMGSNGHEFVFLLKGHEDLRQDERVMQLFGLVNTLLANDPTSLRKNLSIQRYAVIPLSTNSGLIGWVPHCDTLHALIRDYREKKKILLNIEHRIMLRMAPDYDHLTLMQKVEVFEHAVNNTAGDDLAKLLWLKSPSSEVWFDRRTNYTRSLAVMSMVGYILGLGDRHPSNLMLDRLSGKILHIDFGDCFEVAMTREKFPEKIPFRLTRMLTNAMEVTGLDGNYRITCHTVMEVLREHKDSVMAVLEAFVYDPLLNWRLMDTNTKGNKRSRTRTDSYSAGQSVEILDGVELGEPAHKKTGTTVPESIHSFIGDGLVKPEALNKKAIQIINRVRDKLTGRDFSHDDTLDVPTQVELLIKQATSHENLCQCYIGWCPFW

| Structure (SMILES) | IC50 ([1]; A2058, 1 h) [nM] | IC50 ([2]; A2058, 1 h) [nM] | IC50 [3] [nM] | IC50 [1] [nM] | IC50 [2] [nM] |
| --- | --- | --- | --- | --- | --- |
| Nc1ncc(-c2nc(N3CCNCC3)nc(N3CCOCC3)n2)c(C(F)F)n1 [Compound 13] | 150 | 43 | 1020 | – | – |
| Nc1cc(C(F)F)c(-c2cc(N3CCOCC3)nc(N3CCOCC3)n2)cn1 [Compound 16, 4-(difluoromethyl)-5-(2,6-dimorpholinopyrimidin-4-yl)pyridin-2-amine] | – | – | 30 | 184 | 207 |
| Nc1cc(C(F)F)c(-c2nc(N3CCOCC3)cc(N3CCOCC3)n2)cn1 [Compound 18, 4-(difluoromethyl)-5-(4,6-dimorpholinopyrimidin-2-yl)pyridin-2-amine] | – | – | 31 | 256 | 243 |
| Nc1cc(C(F)F)c(-c2cc(N3C4CCC3COC4)nc(N3C4CCC3COC4)n2)cn1 [Compound 22, 5-(6-(3-oxa-8-azabicyclo[3.2.1]octan-8-yl)-2-(3-oxa-8-azabicyclo[3.2.1]octan-8-yl)pyrimidin-4-yl)-4-(difluoromethyl)pyridin-2-amine] | 216 | 57 | 18 | – | – |
| Nc1cc(C(F)F)c(-c2cc(N3CCOCC3)nc(N3C4CCC3COC4)n2)cn1 [Compound 23, 5-(2-(3-oxa-8-azabicyclo[3.2.1]octan-8-yl)-6-morpholinopyrimidin-4-yl)-4-(difluoromethyl)pyridin-2-amine] | 230 | 285 | 40 | – | – |
| Nc1ncc(-c2cc(N3CCOCC3)nc(N3C4CCC3COC4)n2)c(C(F)F)n1 [Compound 24, 2-(3-oxa-8-azabicyclo[3.2.1]octan-8-yl)-4′-(difluoromethyl)-6-morpholino-[4,5′-bipyrimidin]-2′-amine] | 167 | 84 | 35 | – | – |
| C[C@H]1COCCN1c1cc(-c2cnc(N)cc2C(F)F)nc(N2CCOCC2)n1 [Compound 27, (S)-4-(difluoromethyl)-5-(6-(3-methylmorpholino)-2-morpholinopyrimidin-4-yl)pyridin-2-amine] | – | – | 65 | 766 | 614 |
| C[C@H]1COCCN1c1nc(-c2cnc(N)cc2C(F)F)cc(N2CCOCC2)n1 [Compound 31, (S)-4-(difluoromethyl)-5-(2-(3-methylmorpholino)-6-morpholinopyrimidin-4-yl)pyridin-2-amine] | – | – | 15 | 124 | 146 |
| C[C@H]1COCCN1c1nc(-c2cnc(N)nc2C(F)F)cc(N2CCOCC2)n1 [Compound 32, (S)-4′-(difluoromethyl)-2-(3-methylmorpholino)-6-morpholino-[4,5′-bipyrimidin]-2′-amine] | – | – | 293 | 387 | 100 |
| CC1(C)COCCN1c1nc(-c2cnc(N)cc2C(F)F)nc(N2CCOCC2(C)C)n1 [Compound 39, 5-[4,6-bis(3,3-dimethylmorpholin-4-yl)-1,3,5-triazin-2-yl]-4-(difluoromethyl)pyridin-2-amine] | 47 | 106 | 1 | – | – |
| C[C@@H]1COC[C@H](C)N1c1nc(-c2cnc(N)cc2C(F)F)nc(N2[C@H](C)COC[C@@H]2C)n1 [Compound 40, 5-[4,6-bis[(3R,5S)-3,5-dimethylmorpholin-4-yl]-1,3,5-triazin-2-yl]-4-(difluoromethyl)pyridin-2-amine] | – | – | 5 | 160 | 252 |
| C[C@@H]1COCCN1c1nc(-c2cnc(N)cc2C(F)F)nc(N2CCOC[C@H]2C)n1 [Compound 41, 5-[4,6-bis[(3R)-3-methylmorpholin-4-yl]-1,3,5-triazin-2-yl]-4-(difluoromethyl)pyridin-2-amine] | – | – | 22 | 261 | 436 |
| C[C@@H]1COCCN1c1nc(-c2cnc(N)cc2C(F)F)nc(N2CCOCC2(C)C)n1 [Compound 45, 4-(difluoromethyl)-5-[4-(3,3-dimethylmorpholin-4-yl)-6-[(3R)-3-methylmorpholin-4-yl]-1,3,5-triazin-2-yl]pyridin-2-amine] | 93 | 234 | 7 | – | – |
| C[C@@H]1COCCN1c1nc(-c2cnc(N)cc2C(F)F)nc(N2C3COCC2COC3)n1 [Compound 47, 4-(difluoromethyl)-5-[4-(3,7-dioxa-9-azabicyclo[3.3.1]nonan-9-yl)-6-[(3R)-3-methylmorpholin-4-yl]-1,35-triazin-2-yl]pyridin-2-amine] | 176 | 469 | 29 | – | – |
| CC1(C)COCCN1c1nc(-c2cnc(N)cc2C(F)F)nc(N2C3COCC2COC3)n1 [Compound 69, 4-(difluoromethyl)-5-[4-(3,3-dimethylmorpholin-4-yl)-6-(3,7-dioxa-9-azabicyclo[3.3.1]nonan-9-yl)-1,3,5-triazin-2-yl]pyridin-2-amine] | 140 | 244 | 21 | – | – |

More lines, main results first:

| IC50 ([1]; A2058, 1 h) [nM] | IC50 ([2]; A2058, 1 h) [nM] | Structure (SMILES) | IC50 [3] [nM] | IC50 [1] [nM] | IC50 [2] [nM] |
| --- | --- | --- | --- | --- | --- |
| 515 | 208 | Nc1cc(C(F)F)c(-c2nc(N3CCNCC3)nc(N3CCOCC3)n2)cn1 [Compound 12] | 543 | – | – |
| 250 | 146 | Nc1cc(C(F)F)c(-c2nc(N3CCOCC3)nc(N3CCSCC3)n2)cn1 [Compound 20] | 13 | – | – |
| 216 | 57 | Nc1ncc(-c2nc(N3CCOCC3)nc(N3CCSCC3)n2)c(C(F)F)n1 [Compound 21] | 54 | – | – |
| 294 | 303 | C[C@H]1COCCN1c1cc(-c2cnc(N)cc2C(F)F)nc(N2CCOC[C@@H]2C)n1 [Compound 25, 5-(2,6-bis((S)-3-methylmorpholino)pyrimidin-4-yl)-4-(difluoromethyl)pyridin-2-amine] | 32 | – | – |
| 191 | 87 | C[C@H]1COCCN1c1cc(-c2cnc(N)nc2C(F)F)nc(N2CCOC[C@@H]2C)n1 [Compound 26, 4′-(difluoromethyl)-2,6-bis((S)-3-methylmorpholino)-[4,5′-bipyrimidin]-2′-amine] | 47 | – | – |
| 45 | 54 | CC1(C)COCCN1c1nc(-c2cnc(N)cc2C(F)F)nc(N2CCOCC2)n1 [Compound 42, 4-(difluoromethyl)-5-[4-(3,3-dimethylmorpholin-4-yl)-6-morpholino-1,3,5-triazin-2-yl]pyridin-2-amine] | 3 | – | – |
| 87 | 197 | C[C@@H]1COCCN1c1nc(-c2cnc(N)cc2C(F)F)nc(N2[C@H](C)COC[C@@H]2C)n1 [Compound 44, 4-(difluoromethyl)-5-[4-[(3R,5S)-3,5-dimethylmorpholin-4-yl]-6-[(3R)-3-methylmorpholin-4-yl]-1,3,5-triazin-2-yl]pyridin-2-amine] | 5 | – | – |
| 426 | 956 | COC[C@@H]1COCCN1c1nc(-c2cnc(N)cc2C(F)F)nc(N2CCOC[C@H]2C)n1 [Compound 46, 4-(difluoromethyl)-5-[4-[(3R)-3-(methoxymethyl)morpholin-4-yl]-6-[(3R)-3-methylmorpholin-4-yl]-1,3,5-triazin-2-yl]pyridin-2-amine] | 36 | – | – |
| 139 | 244 | C[C@@H]1COC[C@H](C)N1c1nc(-c2cnc(N)cc2C(F)F)nc(N2CCOCC2(C)C)n1 [Compound 66, 4-(difluoromethyl)-5-[4-(3,3-dimethylmorpholin-4-yl)-6-[(3R,5S)-3,5-dimethylmorpholin-4-yl]-1,3,5-triazin-2-yl]pyridin-2-amine] | 4 | – | – |
